Where “and” joins values, the source holds several entries; their conditions need not be identical. Equal entries are not always repeated. Where no end group is shown, it is not given here. Side-chain parts run from the residue outwards. rhodamine‑labelled PEGylated perfluoro‑15‑crown‑5 ether nanoemulsion = not defined here; carboxyfluorescein = N-terminal fluorescence label (CF)
Experiments:
[1] = Dynamic light scattering and ζ potential of PFCs; assay type: physicochemical; settings: panel B raw data, single replicates #1-#6
Protocol: Dynamic light scattering and the ζ potential were measured as described previously[9],[32] at 25 °C using a Nanotrac Wave II analyzer (Microtrac) driven by Microtrac FLEX Software 3.4.
Extended Data Fig. 8 Physicochemical properties and cellular uptake of ^hNPPFCs. a, Cellular uptake of ^hNPPFCs by human monocyte subsets and neutrophils: Human immune cells isolated from the blood of healthy volunteers were incubated with ^hNPPFCs. Subsequently, cells were stained with CD11b, CD14 and CD16 to differentiate between neutrophils (red), classical monocytes (gray) and non-classical monocytes (blue) and the cells were analyzed by flow cytometry. The cellular uptake of ^hNPPFCs was determined under unstimulated conditions (top) and after treatment with 1 µg/ml LPS (bottom). b, Physicochemical properties of the generated nanotracers: Characterization of size, size distribution and ζ potential of ^MalPFCs and targeting PFCs (^hNPPFCs, ^ConPFCs) by dynamic light scattering (DLS). The rhodamine fluorescence signal of the PCS was determined by IVIS imaging and the ^19F content by ^19F MRI. c-e, Cryo transmission electron microscopy of the generated nanotracers: c, Cryo transmission electron microscopy (cryo-TEM) of ^hNPPFCs and ^ConPFCs. Graphs: The diameter of the PFCs was determined manually from three images categorized into 25 nm groups. […] Data are derived from three images for ^hNPPFCs and ^ConPFCs each. d, Box plot (box and whiskers; min to max) of the diameter of ^ConPFCs/^hNPPFCs calculated from cryo-TEM images. e, Relative amount of liposomes (%) in individual cryo-TEM images. The number of PFCs and liposomes was manually determined (n = 4/5 images). Red arrows in the cryo-TEM images indicate liposomes. Data are mean values ± SD of n = 5-6 (a), n = 3-6 (b), n = 3 (c), n = 3 (d) and n = 6 (e) independent experiments; *** = p < 0.001, verified by one-way ANOVA (a). Source data

[2] = 19F content of PFCs by 19F MRI; assay type: physicochemical; settings: panel B raw data, single replicates #1-#3
Protocol: Extended Data Fig. 8 Physicochemical properties and cellular uptake of ^hNPPFCs. a, Cellular uptake of ^hNPPFCs by human monocyte subsets and neutrophils: Human immune cells isolated from the blood of healthy volunteers were incubated with ^hNPPFCs. Subsequently, cells were stained with CD11b, CD14 and CD16 to differentiate between neutrophils (red), classical monocytes (gray) and non-classical monocytes (blue) and the cells were analyzed by flow cytometry. The cellular uptake of ^hNPPFCs was determined under unstimulated conditions (top) and after treatment with 1 µg/ml LPS (bottom). b, Physicochemical properties of the generated nanotracers: Characterization of size, size distribution and ζ potential of ^MalPFCs and targeting PFCs (^hNPPFCs, ^ConPFCs) by dynamic light scattering (DLS). The rhodamine fluorescence signal of the PCS was determined by IVIS imaging and the ^19F content by ^19F MRI. c-e, Cryo transmission electron microscopy of the generated nanotracers: c, Cryo transmission electron microscopy (cryo-TEM) of ^hNPPFCs and ^ConPFCs. Graphs: The diameter of the PFCs was determined manually from three images categorized into 25 nm groups. […] The number of PFCs and liposomes was manually determined (n = 4/5 images). […]

murine blood leukocytes = assay: Ex vivo uptake of mNPPFCs/ConPFCs by murine immune cells, flow cytometry; assay type: cell-based, mouse; design: Basal mNPPFC Uptake, flow cytometry / Stimulated mNPPFC Uptake, flow cytometry: unit not given here; settings: for Stimulated mNPPFC Uptake, flow cytometry: LPS-stimulated conditions; for Stimulated mNPPFC Uptake, flow cytometry / Basal mNPPFC Uptake, flow cytometry: individual experiments; for Basal mNPPFC Uptake, flow cytometry: basal conditions
Protocol: Erythrocytes were lysed by adding a fourfold volume of NH4Cl buffer (pH 7.4). After 10 min of incubation, samples were centrifuged at 350g for 10 min at 20 °C. For isolation of neutrophils from the bone marrow, mice were killed by cervical dislocation, and bones were dissected. Afterward, cells were isolated from the bone marrow using established protocols.
Flow cytometry was performed with a FACSCanto II (BD Biosciences) or LSRFortessa (BD Biosciences). Cells were gated with appropriate FSC–SSC settings and thresholds for excluding debris. To omit dead cells, samples were stained with 1 µg ml^−1 DAPI (Merck). For analysis, cells were gated with FACSDiva 6 or FlowJo 7.1, and MFI and/or the number of positive cells was determined, depending on the experiment.
Human immune cells were discriminated by staining for CD45 (BioLegend, clone HI30), CD11b (BD Biosciences, clone ICRF44), CD14 (BioLegend, clone M5E2) and CD16 (BD Biosciences, clone 3G8) (lymphocytes, CD45^+CD11b^−CD16^−; classical monocytes, CD45^+CD11b^+CD14^++CD16^−; non-classical monocytes, CD45^+CD11b^+CD14^+CD16^++; neutrophils, CD45^+CD11b^+CD16^+). Murine immune cells were discriminated by staining for CD45 (BD Biosciences, clone 30-F11), CD11b (BioLegend, clone M1/70), Ly6G (BD Biosciences, clone 1A8), Ly6C (BioLegend, clone HK1.4) and F4/80 (BioLegend, clone BM8) (lymphocytes, CD45^+CD11b^−Ly6G^−; classical monocytes, CD45^+CD11b^+Ly6G^−Ly6C^hi; non-classical monocytes, CD45^+CD11b^+Ly6G^−Ly6C^lo; neutrophils, CD45^+CD11b^+Ly6G^+; eosinophils, CD45^+CD11b^+Ly6G^+SSC^hiFSC^lo). Both human and murine cells were stained for 20 min at 4 °C, followed by washing with 200 µl MACS buffer.
If not mentioned otherwise, neutrophil-specific peptide or Con (both at 1 µg ml^−1) were incubated for 20 min at 4 °C, while ^NPPFCs or ^ConPFCs were incubated at a concentration of 10 µl ml^−1 for the indicated period of time, followed by two washing steps with 200 µl MACS buffer.
A total of 1 × 10^6 cells were incubated with 10 µl of the emulsion over a period of 80 min at 37 °C. At distinct time points, 50 µl of the samples were transferred into 2 ml of ice-cold MACS buffer and analyzed for rhodamine fluorescence by flow cytometry.
Extended Data Fig. 2 Specific targeting of neutrophils by ^mNPPFCs. a, Flow cytometric analysis of murine blood leukocytes incubated with ^mNPPFCs over 80 min illustrating their predominant uptake by neutrophils (red) as compared to monocytes (blue) and lymphocytes (gray). b, To further validate specificity, binding of CD177 mAb as well as incorporation of ^mNPPFCs under basal and LPS-stimulated conditions were determined. Almost no binding/uptake into classical or non-classical monocytes as well as macrophages or eosinophils could be detected. […] Subsequently, cells were analyzed by ^1H/^19F MRI. Left: ^1H/^19F MRI of centrifugation tubes with neutrophils treated with ^mNPPFCs (lower panel) or ^ConPFCs (upper panel). The small neutrophil cell pellet is located at the bottom of the tube and can be identified by ^1H MRI (1st column) as slightly darker structure (arrows) compared to the bright phosphate buffer; corresponding ^19F MR images (2nd column) and superimposition of ^1H/^19F datasets (3rd column, with ^19F data color-coded in hot iron). Quantification of ^19F signals (4th column) clearly indicate substantial stronger ^19F uptake in ^mNPPFC-treated neutrophils (red) compared to cells incubated with ^ConPFCs (gray); a.u. = arbitrary units. Data are means ± SD of n = 4 (a), n = 6 (b), n = 6 (c) or n = 3-5 (d) independent experiments; * = […], ** = p < 0.01, *** = p < 0.001, verified by two-way ANOVA (a), one-way ANOVA (b) or two-sided students t-test (c, d). Source data

[3] = ex vivo, murine blood, flow cytometry, panel A raw data, replicates #1-#3

| Substance | PDI ([1]; dynamic light scattering) | Size ([1]; dynamic light scattering) | zeta potential [1] | 19F amount [2] | Stimulated mNPPFC Uptake, flow cytometry (murine blood leukocytes; classical monocytes) | Basal mNPPFC Uptake, flow cytometry (murine blood leukocytes; classical monocytes) | Stimulated mNPPFC Uptake, flow cytometry (murine blood leukocytes; eosinophils) | Basal mNPPFC Uptake, flow cytometry (murine blood leukocytes; eosinophils) | uptake of PFCs, lymphocytes (murine blood leukocytes; [3]) | uptake of PFCs, monocytes (murine blood leukocytes; [3]) | uptake of PFCs, neutrophils (murine blood leukocytes; [3]) | Stimulated mNPPFC Uptake, flow cytometry (murine blood leukocytes; macrophages) | Basal mNPPFC Uptake, flow cytometry (murine blood leukocytes; macrophages) | Stimulated mNPPFC Uptake, flow cytometry (murine blood leukocytes; neutrophils) | Basal mNPPFC Uptake, flow cytometry (murine blood leukocytes; neutrophils) | Stimulated mNPPFC Uptake, flow cytometry (murine blood leukocytes; non classical monocytes) | Basal mNPPFC Uptake, flow cytometry (murine blood leukocytes; non classical monocytes) |
| --- | --- | --- | --- | --- | --- | --- | --- | --- | --- | --- | --- | --- | --- | --- | --- | --- | --- |
| hNPPFCs: PEGylated rhodamine-labeled perfluorocarbon nanoemulsion coupled with human neutrophil-specific peptide hNP (carboxyfluorescein-DLVTSKLQVGGGC; also: C-terminal Cys coupled via maleimide-PEG2000-DSPE to rhodamine-labelled perfluorocarbon nanoemulsion) | 0.08 and 0.07 | 91.7 and 97.8 and 100.7 and 101.3 and 102.8 and 95.3 | -30.64 and -34.35 and -35.76 and -32.06 and -35.94 and -33.07 | 6.421 and 6.014 and 6.958 | – | – | – | – | – | – | – | – | – | – | – | – | – |
| mNPPFCs: PEGylated rhodamine-labeled perfluoro-15-crown-5 ether nanoemulsion (maleimide PFCs) coupled with murine neutrophil-specific peptide mNP (carboxyfluorescein-DFYKPMPNLRITGGGC([maleimide‑PEG2000‑DSPE-rhodamine‑labelled PEGylated perfluoro‑15‑crown‑5 ether nanoemulsion]); reading uncertain; also: printed as DFYKPMPNLRIT-GGG-C) | – | – | – | – | 968 and 1199 and 1888 and 792 and 1168 and 1582 | 1007 and 804 and 1494 and 1027 and 800 and 1292 | 391 and 367 and 596 and 415 and 376 and 503 | 880 and 341 and 789 and 755 and 384 and 656 | 97.9 and 103 and 102 | 212 and 348 and 265 | 2972 and 1641 and 1658 | 1176 and 1188 and 969 and 1223 and 1090 and 1085 | 945 and 874 and 865 and 808 and 877 and 873 | 17100 and 16383 and 15263 and 14366 and 16180 and 12939 | 10186 and 7521 and 8652 and 6287 and 6135 and 7209 | 277 and 303 and 242 and 252 and 281 and 240 | 138 and 192 and 152 and 172 and 167 |
